In patent publication US20260248087A1, “GENERATING DOUBLED HAPLOID PLANTS” (Syngenta Crop Protection AG, priority 2023, published 2026):

How the values were obtained:
[1] = system: GST27; assay: GST27 induction, metcamifen pre-treatment of isolated embryos; type: cell-based, maize; details: for GST27 before doubling, Mean: embryo pre-treatment 10 mg/L in MS media; for GST27 Mean: embryo pre-treatment in MS media
Experimental: (§1) For the examples below, GST27 was used as a quick indicator for treatment effectiveness.
(§2) Embryos from maize ears were isolated and treated with metcamifen prior to a colchicine doubling treatment. Isolated embryos plated on filter paper were pre-treated with a formulation of metcamifen at concentrations of 0, 10, 100, and 1000 mg/L in Murashige and Skoog Medium (MS media) for a duration of 1, 3, 5, or 7 days at 6° C. with 150 PAR light. GST27 induction was measured after pre-treatment at each time point and again at the end of the colchicine treatment. Resulting embryos were germinated, and the percentage of embryos successfully transferred to soil (percent potted rate) was measured as an indicator of plant health and pre-treatment effectiveness. GST27 was induced by metcamifen at a medium level ([…] of TSP), but higher than ear pre-treatment that was less than 10 ng/ml of TSP.
The addition of 10% DMSO in the metcamifen formulation at 10, 100, and 1000 mg/L in the MS media was tested to potentially increase the uptake of metcamifen. This test was done at temperatures of both 6° C. and 20° C. over a course of 0 to 4 days. There was no increase in GST27 expression with the 10% DMSO addition at either temperature.
(§3) Embryo pre-treatment with metcamifen at 10 mg/L was tested at temperatures of 6° C. and 20° C. for 1 day to measure the impact of temperature on embryo health.

[2] = system: GST27; assay: GST27 induction, metcamifen pre-treatment of maize ears; type: cell-based
Experimental: as §1
The effect of temperature was tested independently by comparing 6° C. and 28° C. for both 3 and 5 days with 150 PAR light.
Maize ears were pre-treated with metcamifen prior to embryo isolation and before moving the embryos to colchicine-containing doubling media. In all experiments, doubling media is semi-solid, thickened with Gelzan, unless liquid media is specified. Two methods of delivering the safener at concentrations of 100 and 1000 mg/L were tested. The first method wrapped the ear in a paper towel that was wet with formulated metcamifen. The second method used a sprayer to deliver the formulated metcamifen onto the ear surface at 6° C. with 150 PAR light. GST27 was measured after metcamifen pre-treatment and again at the end of colchicine treatment. A low level of GST27 was induced (<10 ng/mg Total Soluble Protein (TSP)) at the end of the ear pre-treatment. Following ear pre-treatment, embryos were isolated and treated with colchicine for 48 hours.
The addition of 0.5% Tween20 in the formulation with metcamifen at both 100 and 1000 mg/L was tested in combination with spraying corn ears as a pre-treatment prior to embryo isolation.

[3] = system: embryos from maize ears; assay: Potted rate after metcamifen pre-treatment of isolated embryos; type: in vivo
Description: (§4) As used herein, the term “potted rate” or “potting rate” refers to the percent of germinated embryos successfully transferred to soil from total treated haploid embryos. The “potted rate” is used as an indication of plant health in monitoring the success of recovery and growth after treatment of haploids. As used herein, the term “transplant rate” refers to the survival of healthy plants after embryos were germinated and transferred to soil.
as §2, §3

[4] = system: GST27; assay: GST27 induction, metcamifen co-treatment of isolated embryos during colchicine doubling; type: cell-based, maize; details: for GST27 Induction Mean: co-treatment with colchicine
Experimental: as §1
(§5) Isolated embryos were treated with metcamifen during colchicine doubling (also referred to as co-treatment). Metcamifen was added in the colchicine co-treatment media (a.k.a. doubling media) as a formulation at concentrations of 0, 200, 400, 800, 1200 mg/L. Metcamifen concentrations tested for a 24-hour duration ranged from 0-1000 mg/L. Metcamifen concentrations tested for a 48-hour condition ranged from 0-1200 mg/L. Three to four genotypes representing two heterotic groups were tested.
(§6) Initial testing on three genotypes included co-treatment of metcamifen and colchicine in Gelzan media at 28° C. with 150 PAR light at concentrations of 0, 200, and 1000 mg/L to identify a range of working concentrations. The 200 and 1000 mg/L concentrations induced similar GST27 expression levels for both the 24- and 48-hour durations. The resulting induction was higher (400 ng/mg TSP GST27) than recorded with pre-treatments of ears or isolated embryos. […] Metcamifen co-treatment of isolated embryos optimization continued by testing levels of 0, 400, 600, and 800 mg/L for 24 and 48 hours with 4 genotypes across 2 heterotic groups. GST induction (ng/mg TSP) was measured after metcamifen co-treatment. […] The percent potted rate after metcamifen co-treatment was similar for both time durations when sorted by genotype or heterotic group.

[5] = system: isolated embryos; assay: Potted rate after metcamifen co-treatment during colchicine doubling; type: in vivo, maize; details: for Potted Rate Mean: co-treatment with colchicine
Experimental: as §4, §5, §6

[6] = initial testing, 200 and 1000 mg/L, 24-hour co-treatment

CNC(=O)Nc1ccc(S(=O)(=O)NC(=O)c2ccccc2OC)cc1 [Metcamifen, metcamifen]
GST27 induction in comparison to the control and other doses ([1]; 10 mg/L, all time points, 6° C. and 20° C., DMSO test): best GST27 induction | GST27 expression with 10% DMSO addition ([1]; 10, 100, 1000 mg/L in MS media, 6° C. and 20° C., 0 to 4 days): no increase | GST27 before doubling, Mean ([1]; 1 day, 6° C.): 8.83 ng/mg TSP | GST27 before doubling, Mean ([1]; 1 day, 20° C.): 140 ng/mg TSP | GST27 Mean ([1]; 10 mg/L, 1 day, 6° C.): 9 ng/mg TSP | GST27 Mean ([1]; 10 mg/L, 3 days, 6° C.): 14 ng/mg TSP | GST27 Mean ([1]; 10 mg/L, 5 days, 6° C.): 37 ng/mg TSP | GST27 Mean ([1]; 10 mg/L, 7 days, 6° C.): 75 ng/mg TSP | GST27 Mean ([1]; 100 mg/L, 1 day, 6° C.): 21 ng/mg TSP | GST27 Mean ([1]; 100 mg/L, 3 days, 6° C.): 30 ng/mg TSP | GST27 Mean ([1]; 100 mg/L, 5 days, 6° C.): 61 ng/mg TSP | GST27 Mean ([1]; 100 mg/L, 7 days, 6° C.): 92 ng/mg TSP | GST27 Mean ([1]; 1000 mg/L, 1 day, 6° C.): 11 ng/mg TSP | GST27 Mean ([1]; 1000 mg/L, 3 days, 6° C.): 71 ng/mg TSP | GST27 Mean ([1]; 1000 mg/L, 5 days, 6° C.): 60 ng/mg TSP | GST27 Mean ([1]; 1000 mg/L, 7 days, 6° C.): 108 ng/mg TSP | GST27 induced by metcamifen (medium level) ([1]; embryo pre-treatment, 10-1000 mg/L, 1-7 days, 6° C.): < 100 ng/ml of TSP | GST27 induced at the end of the ear pre-treatment ([2]; ear pre-treatment, 100 and 1000 mg/L, 6° C.): < 10 ng/mg Total Soluble Protein (TSP) | GST27 induced by ear pre-treatment ([2]; ear pre-treatment, as restated in Example 3): less than 10 ng/ml of TSP | GST27 before doubling, Mean ([2]; ear pre-treatment, metcamifen 100 mg/L, 3 days, 6° C.): 4 ng/mg of TSP | GST27 after doubling, Mean ([2]; ear pre-treatment, metcamifen 100 mg/L, 3 days, 6° C., then colchicine 48 hours): 156 ng/mg of TSP | GST27 before doubling, Mean ([2]; ear pre-treatment, metcamifen 100 mg/L, 5 days, 6° C.): 2 ng/mg of TSP | GST27 after doubling, Mean ([2]; ear pre-treatment, metcamifen 100 mg/L, 5 days, 6° C., then colchicine 48 hours): 245 ng/mg of TSP | GST27 before doubling, Mean ([2]; ear pre-treatment, metcamifen 1000 mg/L, 3 days, 6° C.): 3 ng/mg of TSP | GST27 after doubling, Mean ([2]; ear pre-treatment, metcamifen 1000 mg/L, 3 days, 6° C., then colchicine 48 hours): 178 ng/mg of TSP | GST27 before doubling, Mean ([2]; ear pre-treatment, metcamifen 1000 mg/L, 5 days, 6° C.): 4 ng/mg of TSP | GST27 after doubling, Mean ([2]; ear pre-treatment, metcamifen 1000 mg/L, 5 days, 6° C., then colchicine 48 hours): 303 ng/mg of TSP | GST27 induction at the end of the colchicine treatment ([2]; ear pre-treatment, then colchicine 48 hours): increased but insignificant | GST27 expression level with addition of 0.5% Tween20 ([2]; spraying corn ears, 100 and 1000 mg/L, over 4 days): did not improve | Potted Rate Mean ([3]; embryo pre-treatment 10 mg/L in MS media, 1 day, 6° C. (Table 3 experiment)): 62% | Potted Rate Mean ([3]; embryo pre-treatment 10 mg/L in MS media, 1 day, 6° C. (Table 3 experiment), listed as metcamifen): significantly higher potting rate than the control | Potted Rate Mean ([3]; embryo pre-treatment 10 mg/L in MS media, 1 day, 20° C.): 23% | Potted Rate Mean ([3]; embryo pre-treatment 10 mg/L in MS media, 1 day, 20° C., listed as metcamifen): 2% | Potted Rate Mean ([3]; embryo pre-treatment in MS media, 10 mg/L, 1 day, 6° C.): 46% | Potted Rate Mean ([3]; embryo pre-treatment in MS media, 10 mg/L, 3 days, 6° C.): 38% | Potted Rate Mean ([3]; embryo pre-treatment in MS media, 10 mg/L, 5 days, 6° C.): 4% | Potted Rate Mean ([3]; embryo pre-treatment in MS media, 10 mg/L, 7 days, 6° C.): 27% | Potted Rate Mean ([3]; embryo pre-treatment in MS media, 100 mg/L, 1 day, 6° C.): 12% | Potted Rate Mean ([3]; embryo pre-treatment in MS media, 100 mg/L, 3 days, 6° C.): 12% | Potted Rate Mean ([3]; embryo pre-treatment in MS media, 100 mg/L, 5 days, 6° C.): 16% | Potted Rate Mean ([3]; embryo pre-treatment in MS media, 100 mg/L, 7 days, 6° C.): 24% | Potted Rate Mean ([3]; embryo pre-treatment in MS media, 1000 mg/L, 1 day, 6° C.): 10% | Potted Rate Mean ([3]; embryo pre-treatment in MS media, 1000 mg/L, 3 days, 6° C.): 16% | Potted Rate Mean ([3]; embryo pre-treatment in MS media, 1000 mg/L, 5 days, 6° C.): 17% | Potted Rate Mean ([3]; embryo pre-treatment in MS media, 1000 mg/L, 7 days, 6° C.): 17% | GST27 induction among 0, 400, 600, 800 mg/L ([4]; 800 mg/L, 48-hour co-treatment, 4 genotypes): highest induction | GST27 Induction Mean ([4]; 200 mg/L, 24 hours): 383.25 ng/mg TSP | GST27 Induction Mean ([4]; 400 mg/L, 24 hours): 396.13 ng/mg TSP | GST27 Induction Mean ([4]; 400 mg/L, 48 hours): 609.50 ng/mg TSP | GST27 Induction Mean ([4]; 800 mg/L, 24 hours): 489.38 ng/mg TSP | GST27 Induction Mean ([4]; 800 mg/L, 48 hours): 666.50 ng/mg TSP | GST27 Induction Mean ([4]; 1200 mg/L, 48 hours): 796.63 ng/mg TSP | GST27 induction ([4]; initial testing, 200 and 1000 mg/L, 24- and 48-hour, Gelzan media, 28° C., three genotypes): 400 ng/mg TSP | Potted Rate Mean ([5]; 200 mg/L, 24 hours): 84% | Potted Rate Mean ([5]; 400 mg/L, 24 hours): 84% | Potted Rate Mean ([5]; 400 mg/L, 48 hours): 14% | Potted Rate Mean ([5]; 800 mg/L, 24 hours): 92% | Potted Rate Mean ([5]; 800 mg/L, 48 hours): 73% | Potted Rate Mean ([5]; 1200 mg/L, 48 hours): 71% | percent potted rate versus 1000 mg/L and control ([5]; initial testing, 200 mg/L, 48-hour co-treatment): increased the percent potted rate | doubled haploid ears produced versus the control [5, 6]: increase in the doubled haploid ears produced | percent potted rate versus the control [5, 6]: increased the percent potted rate
